What was measured:
[1] = Displacement of [3H]ACE from Aplysia AChBP expressed in HEK293S cells by scintillation proximity assay; type: cell-based
[2] = Displacement of [3H]EPI from Aplysia AChBP expressed in HEK293S cells by scintillation proximity assay; type: cell-based
[3] = Inhibition of [3H]1-((5-azido-6-chloropyridin-3-yl)methyl)-3-methyl-2-nitroguanidine incorporation into AchBP assessed as protection of photoaffinity labeling at 500 pmol; parameters: scale not given: the % may be the effect or the level left

For N=C1NCCN1Cc1ccc(Cl)nc1 [DESNITROIMIDACLOPRID], the Ki [1] was 56 nM and the Ki [2] was 44 nM.
For C/C(=N\C#N)N(C)Cc1ccc(Cl)nc1 [ACETAMIPRID], the Ki [1] was 41 nM and the Ki [2] was 19 nM.
CN/C(=N\[N+](=O)[O-])NCc1cnc(Cl)s1 [CLOTHIANIDINE] showed a Ki [1] of 808 nM and a Ki [2] of 574 nM.
Compound Clc1ccc(C2CC3CCC2N3)cn1 (racemic) [EPIBATIDINE] has a Ki [1] of 14 nM and a Ki [2] of 8.6 nM.
Compound CN1CCC[C@H]1c1cccnc1 [NICOTINE] has a Ki [1] of 415 nM and a Ki [2] of 260 nM.
Work on N=C1SCCN1Cc1ccc(Cl)nc1 [DESCYANOTHIACLOPRID] yielded a Ki [1] of 10 nM and a Ki [2] of 8.5 nM.
Compound CCN(Cc1ccc(Cl)nc1)/C(=C/[N+](=O)[O-])NC [NITENPYRAM] has a Ki [1] of 335 nM and a Ki [2] of 180 nM.
For N#C/N=C1\SCCN1Cc1ccc(Cl)nc1 [THIACLOPRID], the Ki [1] was 9.9 nM and the Ki [2] was 8.4 nM.
In the case of N#C/N=c1\sccn1Cc1cnc(Cl)c(N=[N+]=[N-])c1, the Ki [1] is reported as 2.3 nM and the Ki [2] is reported as 1.7 nM.
Work on O=[N+]([O-])/N=C1\NCCN1Cc1ccc(Cl)nc1 [IMIDACLOPRID] yielded an Activity [3] of 50%, a Ki [1] of 267 nM and a Ki [2] of 180 nM.
